For experiment [1], the system named is Staphylococcus aureus. The experiment in a line: Antibacterial activity against MRSA strain COL. The format is functional.
For experiment [2], the system named is Enterococcus faecium. Briefly: Antibacterial activity against MDREFm. The format is functional.
The test system of experiment [3] is Enterococcus faecalis. Briefly: Antibacterial activity against VREFs. The format is functional.
Experiment [4] concerns the target T1, MecA (Staphylococcus aureus, UniProt Q7DHH4).
T1 sequence (Q7DHH4 whole entry): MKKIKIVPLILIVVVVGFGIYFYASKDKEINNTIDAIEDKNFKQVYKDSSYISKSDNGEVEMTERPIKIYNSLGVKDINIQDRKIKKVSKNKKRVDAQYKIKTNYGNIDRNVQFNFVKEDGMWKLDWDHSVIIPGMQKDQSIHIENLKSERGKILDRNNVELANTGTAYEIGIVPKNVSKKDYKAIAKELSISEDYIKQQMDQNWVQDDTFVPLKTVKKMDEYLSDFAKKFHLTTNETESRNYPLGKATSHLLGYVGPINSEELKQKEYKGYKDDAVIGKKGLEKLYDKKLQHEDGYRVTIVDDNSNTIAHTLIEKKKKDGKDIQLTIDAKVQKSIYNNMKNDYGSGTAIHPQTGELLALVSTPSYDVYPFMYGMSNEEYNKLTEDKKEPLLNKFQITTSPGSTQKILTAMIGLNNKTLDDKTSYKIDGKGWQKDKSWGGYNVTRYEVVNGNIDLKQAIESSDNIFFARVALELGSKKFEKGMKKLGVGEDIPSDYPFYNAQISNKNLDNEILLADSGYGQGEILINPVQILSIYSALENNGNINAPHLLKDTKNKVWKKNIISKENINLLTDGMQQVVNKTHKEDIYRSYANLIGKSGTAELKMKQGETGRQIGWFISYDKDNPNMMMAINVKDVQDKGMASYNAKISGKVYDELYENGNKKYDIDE
Briefly: Compound was tested for its binding affinity towards Penicillin-binding protein 2a (PBP2a) using […]-benzylpenicillin.

For experiment [5], the system named is Staphylococcus sp. The experiment in a line: (§1) Antibacterial activity against MRCNS. The format is functional.
For experiment [6], the system named is Streptococcus pneumoniae. The experiment in a line: Antibacterial activity against PRSP. The format is functional.
Experiment [7] deals with Staphylococcus aureus. The experiment in a line: Antibacterial activity against MRSA. The format is functional.
Experiment [8] relates to Staphylococcus. The experiment is described as §1. The format is functional.
In experiment [9] the test system is Staphylococcus aureus. The experiment in a line: Antibacterial activity against for MRSA strain COL. The format is functional.

Values after ≈ are worked out from the molar mass of the structure shown.

For orientation: MIC means the least concentration at which growth counts as inhibited. Read a high MIC as a less susceptible organism. In experiment [1], `C[C@@H](O)[C@H]1C(=O)N2C(C(=O)[O-])=C(CN(c3cccc4c3-c3ccccc3C4=O)S(C)(=O)=O)[C@H](C)[C@H]12.[Na+]` yielded an MIC greater than 64 µg/mL.

What is called IC50 is the concentration needed to halve the response being measured. High values mean weaker potency, low ones greater potency. As for `C[C@@H](O)[C@H]1C(=O)N2C(C(=O)O)=C(SCCNC=N)C[C@H]12` [IMIPENEM ANHYDROUS], the MIC is greater than 64 µg/mL in experiment [2]; 8 µg/mL (≈ 26.7 µM) in experiment [3]; greater than 64 µg/mL in [5]; 0.25 µg/mL (≈ 0.835 µM) in experiment [6]; greater than 40 µg/mL in experiment [7]. In addition, in experiment [4], the IC50 is 628 µM.

Consider `C[C@@H](O)[C@H]1C(=O)N2C(C(=O)[O-])=C(CN3c4ccccc4-c4ccccc4S3(=O)=O)[C@H](C)[C@H]12.[Na+]`, for which the MIC in experiment [1] turned out to be 8 µg/mL.

In turn, `C[C@@H](O)[C@H]1C(=O)N2C(C(=O)[O-])=C(CN(c3ccccc3)S(=O)(=O)c3ccccc3)[C@H](C)[C@H]12.[Na+]` came in with an MIC in experiment [1] of 64 µg/mL.

Regarding `CN[C@H](CC(C)C)C(=O)N[C@H]1C(=O)N[C@@H](CC(N)=O)C(=O)N[C@H]2C(=O)N[C@H]3C(=O)N[C@H](C(=O)N[C@H](C(=O)O)c4cc(O)cc(O)c4-c4cc3ccc4O)[C@H](O)c3ccc(c(Cl)c3)Oc3cc2cc(c3O[C@@H]2O[C@H](CO)[C@@H](O)[C@H](O)[C@H]2O[C@H]2C[C@](C)(N)[C@H](O)[C@H](C)O2)Oc2ccc(cc2Cl)[C@H]1O` [VANCOMYCIN], the MIC was 20.2 µg/mL (≈ 13.9 µM) in [2]; greater than 64 µg/mL in experiment [3]; 1.7 µg/mL (≈ 1.17 µM) in [5]; 0.35 µg/mL (≈ 0.242 µM) in [6]; 0.9 µg/mL (≈ 0.621 µM) in experiment [7].

`C[C@@H](O)[C@H]1C(=O)N2C(C(=O)[O-])=C(CN3c4ccccc4CS3(=O)=O)[C@H](C)[C@H]12.[Na+]` registered an MIC in experiment [1] of 16 µg/mL.

Take `C[C@@H](O)[C@H]1C(=O)N2C(C(=O)[O-])=C(CN(c3ccc4ccccc4c3)S(=O)(=O)c3ccccc3)[C@H](C)[C@H]12.[Na+]`: it took 64 µg/mL to inhibit growth in [1] (MIC).

Take `C[C@@H](O)[C@H]1C(=O)N2C(C(=O)[O-])=C(CN3C(=O)c4cccc5cccc(c45)S3(=O)=O)[C@H](C)[C@H]12.[Na+]`: the MIC in [2] amounted to 32 µg/mL; in experiment [3], 8 µg/mL; in experiment [5], 8 µg/mL; in experiment [6] it was 0.25 µg/mL; in experiment [7], 4 µg/mL; in experiment [1], 8 µg/mL. For the same molecule, the IC50 in experiment [4] was 5.02 µM.

For the molecule `C[C@@H](O)[C@H]1C(=O)N2C(C(=O)[O-])=C(CN3C(=O)c4cccc5cccc3c45)[C@H](C)[C@H]12.[Na+]`, the MIC stood at 64 µg/mL in [2]; 64 µg/mL in experiment [3]; 21.1 µg/mL in experiment [8]; 4 µg/mL in experiment [6]; 12 µg/mL in [7]; 32 µg/mL in experiment [1].

`C[C@@H](O)[C@H]1C(=O)N2C(C(=O)[O-])=C(CN3Cc4c(ccc5ccccc45)S3(=O)=O)[C@H](C)[C@H]12.[Na+]`: the MIC in experiment [2] was found to be 50.8 µg/mL; in [3] it was 8 µg/mL; in [5], 10.6 µg/mL; in experiment [6], 0.17 µg/mL; in experiment [7], 3.4 µg/mL; in experiment [1], 8 µg/mL. For the same molecule, the IC50 in [4] is 38.1 µM.

For `C[C@@H](O)[C@H]1C(=O)N2C(C(=O)[O-])=C(CN3C(=O)c4c(ccc5ccccc45)S3(=O)=O)[C@H](C)[C@H]12.[Na+]`, the MIC is 20.2 µg/mL in experiment [2]; 8 µg/mL in [3]; 5.3 µg/mL in experiment [5]; 0.25 µg/mL in experiment [6]; 1.3 µg/mL in [7]; 4 µg/mL in experiment [1]. The molecule further had an IC50 in experiment [4] of 3.34 µM.

The molecule `C[C@@H](O)[C@H]1C(=O)N2C(C(=O)[O-])=C(CN3c4cccc5cccc(c45)S3(=O)=O)[C@H](C)[C@H]12.[Na+]` returned an MIC in [1] of 2 µg/mL.

Consider `C[C@@H](O)[C@H]1C(=O)N2C(C(=O)[O-])=C(CN(c3ccccc3)S(=O)(=O)c3ccc4ccccc4c3)[C@H](C)[C@H]12.[Na+]`, for which, in experiment [1], the MIC stood at 64 µg/mL.

For the molecule `C[C@@H](O)[C@H]1C(=O)N2C(C(=O)[O-])=C(CN3c4cccc5cccc(c45)N(C)S3(=O)=O)[C@H](C)[C@H]12.[Na+]`, the MIC in experiment [2] amounted to 64 µg/mL; in experiment [3], 64 µg/mL; in [5], 7 µg/mL; in [6] it was 1 µg/mL; in [7], 1.5 µg/mL; in [1] it was 4 µg/mL. The IC50 in [4] is 14.8 µM.

`C[C@@H](O)[C@H]1C(=O)N2C(C(=O)[O-])=C(CN3C(=O)c4ccccc4S3(=O)=O)[C@H](C)[C@H]12.[Na+]` gave a minimum inhibitory concentration (MIC) in experiment [1] of 16 µg/mL.

For `C[C@@H](O)[C@H]1C(=O)N2C(C(=O)[O-])=C(CN3Cc4ccccc4S3(=O)=O)[C@H](C)[C@H]12.[Na+]`, inhibition of growth in experiment [1] (MIC) required 64 µg/mL.

Regarding `C[C@@H](O)[C@H]1C(=O)N2C(C(=O)[O-])=C(CN3C(=O)c4cccc5cccc(c45)C3=O)[C@H](C)[C@H]12.[Na+]`, the MIC in experiment [2] came to 64 µg/mL; in experiment [3], 24.3 µg/mL; in experiment [5] it was 24.3 µg/mL; in experiment [6], 1.4 µg/mL; in [7], 12 µg/mL; in experiment [1], 32 µg/mL. Further, the IC50 in experiment [4] was 3.16 µM.

For the molecule `C[C@@H](O)[C@H]1C(=O)N2C(C(=O)[O-])=C(CN(c3ccc4ccccc4c3)S(C)(=O)=O)[C@H](C)[C@H]12.[Na+]`, in [1], the minimal inhibitory concentration (MIC) is greater than 64 µg/mL.

As for `C[C@@H](O)[C@H]1C(=O)N2C(C(=O)[O-])=C(CN3Cc4cccc5cccc(c45)S3(=O)=O)[C@H](C)[C@H]12.[Na+]`, the MIC in [2] amounted to 40.3 µg/mL; in experiment [3], 8 µg/mL; in experiment [5], 16 µg/mL; in experiment [6], 0.12 µg/mL; in [7], 8.5 µg/mL; in [1], 16 µg/mL. For the same molecule, the IC50 in experiment [4] was 46.9 µM.

Regarding `C[C@@H](O)[C@H]1C(=O)N2C(C(=O)[O-])=C(CN(c3cccc4ccccc34)S(C)(=O)=O)[C@H](C)[C@H]12.[Na+]`, the MIC in experiment [9] is greater than 64 µg/mL.
